Laboratory results as given in US20250064941A1, “SIGLEC LIGANDS, CONJUGATES, AND METHODS OF USE THEREOF” (Osprey Biopharmaceuticals, Inc., priority 2023, published 2025).

Tests used:
[1] = molecular target: T1, mouse Siglec-2-Fc-Avi (CD22) (Mus musculus, UniProt P35329); assay: SPR binding affinity to mouse CD22; conditions: steady-state analysis
T1 construct: made in house
T1 sequence (P35329 22-708 limits assumed): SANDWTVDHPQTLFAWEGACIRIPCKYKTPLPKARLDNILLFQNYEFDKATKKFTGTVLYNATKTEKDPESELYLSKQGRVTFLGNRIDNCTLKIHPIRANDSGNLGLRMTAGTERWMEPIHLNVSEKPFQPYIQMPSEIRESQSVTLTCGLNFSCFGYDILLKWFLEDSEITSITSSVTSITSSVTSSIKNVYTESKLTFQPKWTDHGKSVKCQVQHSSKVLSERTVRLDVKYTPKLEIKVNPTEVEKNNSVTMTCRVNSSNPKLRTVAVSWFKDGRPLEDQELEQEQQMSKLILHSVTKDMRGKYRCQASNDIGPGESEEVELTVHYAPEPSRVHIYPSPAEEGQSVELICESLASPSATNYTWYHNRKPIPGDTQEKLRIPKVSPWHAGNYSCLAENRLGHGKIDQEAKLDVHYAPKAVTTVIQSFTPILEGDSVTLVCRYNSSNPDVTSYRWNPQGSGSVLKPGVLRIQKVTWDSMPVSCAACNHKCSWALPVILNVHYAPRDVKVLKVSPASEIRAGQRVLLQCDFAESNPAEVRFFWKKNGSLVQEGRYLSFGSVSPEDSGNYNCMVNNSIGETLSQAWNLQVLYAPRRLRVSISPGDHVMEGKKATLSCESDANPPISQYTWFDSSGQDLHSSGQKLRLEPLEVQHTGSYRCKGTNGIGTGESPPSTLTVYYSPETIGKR
Summary of the method: (§1)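 Steady-state fits gave the affinities. Before capture on a streptavidin surface, biotinylated CD22 had native sialic acids stripped (SialoExo, 4 hours, 37° C.). Running buffer: 10 mM HEPES pH 7.5, 150 mM NaCl, 0.05% Tween-20, 1% DMSO, with DMSO solvent correction.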

cynomolgus Siglec-2/CD22 = cynomolgus Siglec-2/CD22 (Macaca fascicularis, UniProt A0A2K5WCZ6); assay: biochemical; assay type: binding; conditions: SPR, steady-state analysis; read-out: Affinity cyno CD22
Summary of the method: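 Compound binding measured by steady-state SPR analysis, 120 s dissociation, in HEPES-NaCl-Tween buffer pH 7.5 containing 1% DMSO, DMSO solvent-corrected. Surface: cyno CD22, sialic acids first stripped by SialoExo for 4 h at 37° C., then amine-coupled onto CM5.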

[2] = molecular target: T2, human Siglec-2/CD22 protein (Homo sapiens, UniProt P20273); assay: SPR binding affinity to human CD22; conditions: steady-state analysis
T2 construct: purchased Acro Biosystems SI2-H82E3
T2 sequence (P20273 20-847): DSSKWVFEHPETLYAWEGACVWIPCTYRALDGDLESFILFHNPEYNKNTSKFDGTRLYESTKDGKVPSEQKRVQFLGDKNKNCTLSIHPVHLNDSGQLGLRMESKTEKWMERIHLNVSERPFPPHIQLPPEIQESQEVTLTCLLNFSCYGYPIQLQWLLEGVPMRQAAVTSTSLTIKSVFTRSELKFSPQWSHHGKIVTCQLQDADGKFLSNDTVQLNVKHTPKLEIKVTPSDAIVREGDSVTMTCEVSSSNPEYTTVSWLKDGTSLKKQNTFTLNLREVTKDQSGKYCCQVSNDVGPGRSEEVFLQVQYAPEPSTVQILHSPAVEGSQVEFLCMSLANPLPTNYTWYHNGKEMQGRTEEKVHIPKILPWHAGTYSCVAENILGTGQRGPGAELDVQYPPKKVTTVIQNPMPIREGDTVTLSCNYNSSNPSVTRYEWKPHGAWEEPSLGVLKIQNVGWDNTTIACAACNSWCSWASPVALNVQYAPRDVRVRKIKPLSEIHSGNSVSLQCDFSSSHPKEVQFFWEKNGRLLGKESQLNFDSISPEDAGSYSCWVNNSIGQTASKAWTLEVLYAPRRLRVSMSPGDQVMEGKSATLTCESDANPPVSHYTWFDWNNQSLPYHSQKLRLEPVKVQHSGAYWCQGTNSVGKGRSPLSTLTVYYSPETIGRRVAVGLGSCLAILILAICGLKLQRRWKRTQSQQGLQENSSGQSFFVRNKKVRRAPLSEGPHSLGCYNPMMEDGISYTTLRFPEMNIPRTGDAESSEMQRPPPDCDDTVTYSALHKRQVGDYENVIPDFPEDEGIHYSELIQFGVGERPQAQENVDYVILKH
Summary of the method: as §1

cynomolgus Siglec-2/CD22, sequence (A0A2K5WCZ6 entry or part of it): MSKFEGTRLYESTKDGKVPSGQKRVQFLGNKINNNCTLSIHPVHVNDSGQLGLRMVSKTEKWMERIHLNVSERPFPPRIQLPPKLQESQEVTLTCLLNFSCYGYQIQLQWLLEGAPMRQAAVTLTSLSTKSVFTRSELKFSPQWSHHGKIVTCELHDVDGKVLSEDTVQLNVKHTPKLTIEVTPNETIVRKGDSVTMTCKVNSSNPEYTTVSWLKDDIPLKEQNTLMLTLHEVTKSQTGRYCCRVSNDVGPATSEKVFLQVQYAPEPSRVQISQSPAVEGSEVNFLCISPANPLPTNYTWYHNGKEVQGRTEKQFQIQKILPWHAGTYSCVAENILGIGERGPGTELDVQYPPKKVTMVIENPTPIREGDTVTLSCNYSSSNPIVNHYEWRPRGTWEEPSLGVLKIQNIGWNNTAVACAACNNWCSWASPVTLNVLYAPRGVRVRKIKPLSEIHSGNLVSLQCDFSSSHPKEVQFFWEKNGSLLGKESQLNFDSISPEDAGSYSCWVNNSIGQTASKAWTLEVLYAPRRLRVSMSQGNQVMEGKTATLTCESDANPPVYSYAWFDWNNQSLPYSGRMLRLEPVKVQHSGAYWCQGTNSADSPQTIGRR

| Kd [1] [µM] | Kd (cynomolgus Siglec-2/CD22) [µM] | Kd [2] [µM] | SMILES |
| --- | --- | --- | --- |
| < 1 | < 1 | < 1 | C#CCCOc1ccc(CO[C@]2(C(=O)O)C[C@H](O)[C@@H](NC(=O)CO)[C@H]([C@H](O)[C@H](O)CNC(=O)Cc3ccc(-c4ccc(O)cc4)cc3)O2)cc1 [Compound 77, (2R,4S,5R,6R)-2-((4-(but-3-yn-1-yloxy)benzyl)oxy)-6-((1R,2R)-1,2-dihydroxy-3-(2-(4′-hydroxy-[1,1′-biphenyl]-4-yl)acetamido)propyl)-4-hydroxy-5-(2-hydroxyacetamido)tetrahydro-2H-pyran-2-carboxylic acid] |
| > 10 | > 10 | > 10 | NCC(O)CO[C@]1(C(=O)O)C[C@H](O)[C@@H](NC(=O)CO)[C@H]([C@H](O)[C@H](O)CNC(=O)Cc2ccc(Cl)cc2)O1 (stereo partly drawn) [Compound 104, (2R,4S,5R,6R)-2-(3-amino-2-hydroxypropoxy)-6-((1R,2R)-3-(2-(4-chlorophenyl)acetamido)-1,2-dihydroxypropyl)-4-hydroxy-5-(2-hydroxyacetamido)tetrahydro-2H-pyran-2-carboxylic acid] |
| 1 to 10 | 1 to 10 | 1 to 10 | C#CCOc1ccc(CO[C@]2(C(=O)O)C[C@H](O)[C@@H](NC(=O)CO)[C@H]([C@H](O)[C@H](O)CNC(=O)Cc3ccccc3O)O2)cc1 [Compound 145, (2R,4S,5R,6R)-6-((1R,2R)-1,2-dihydroxy-3-(2-(2-hydroxyphenyl)acetamido)propyl)-4-hydroxy-5-(2-hydroxyacetamido)-2-((4-(prop-2-yn-1-yloxy)benzyl)oxy)tetrahydro-2H-pyran-2-carboxylic acid] |
| 1 to 10 | < 1 | < 1 | O=C(O)CCCCCO[C@]1(C(=O)O)C[C@H](O)[C@@H](NC(=O)CO)[C@H]([C@H](O)[C@H](O)CNC(=O)Cc2ccc(Cl)cc2)O1 [Compound 121, (2R,4S,5R,6R)-2-((5-carboxypentyl)oxy)-6-((1R,2R)-3-(2-(4-chlorophenyl)acetamido)-1,2-dihydroxypropyl)-4-hydroxy-5-(2-hydroxyacetamido)tetrahydro-2H-pyran-2-carboxylic acid] |
| 1 to 10 | 1 to 10 | < 1 | C#CCOCCOCCO[C@]1(C(=O)O)C[C@H](O)[C@@H](NC(=O)NC)[C@H]([C@H](O)[C@H](O)CNC(=O)Cc2ccc(-c3ccc(O)cc3)cc2)O1 [Compound 70, (2R,4S,5R,6R)-6-((1R,2R)-1,2-dihydroxy-3-(2-(4′-hydroxy-[1,1′-biphenyl]-4-yl)acetamido)propyl)-4-hydroxy-5-(3-methylureido)-2-(2-(2-(prop-2-yn-1-yloxy)ethoxy)ethoxy)tetrahydro-2H-pyran-2-carboxylic acid] |
| > 10 | > 10 | > 10 | C#CCOCCOCCO[C@]1(C(=O)O)C[C@H](O)[C@@H](NC(=O)CO)[C@H]([C@H](O)[C@H](O)CNC(=O)CC)O1 [Compound 15, (2R,4S,5R,6R)-6-((1R,2R)-1,2-dihydroxy-3-propionamidopropyl)-4-hydroxy-5-(2-hydroxyacetamido)-2-(2-(2-(prop-2-yn-1-yloxy)ethoxy)ethoxy)tetrahydro-2H-pyran-2-carboxylic acid] |
| > 10 | < 1 | 1 to 10 | C#CCOCCOCCO[C@]1(C(=O)O)C[C@H](O)[C@@H](NC(=O)CO)[C@H]([C@H](O)[C@H](O)CNC(=O)Cc2ccc(F)c(C(F)(F)F)c2)O1 [Compound 132, (2R,4S,5R,6R)-6-((1R,2R)-3-(2-(4-fluoro-3-(trifluoromethyl)phenyl)acetamido)-1,2-dihydroxypropyl)-4-hydroxy-5-(2-hydroxyacetamido)-2-(2-(2-(prop-2-yn-1-yloxy)ethoxy)ethoxy)tetrahydro-2H-pyran-2-carboxylic acid] |
| > 10 | 1 to 10 | > 10 | C#CCCOc1ccc(CO[C@]2(C(=O)O)C[C@H](O)[C@@H](NC(=O)CO)[C@H]([C@H](O)[C@H](O)CNC(=O)Cc3ccc(N4CCC(NC(C)=O)CC4)cc3)O2)cc1 [Compound 137, (2R,4S,5R,6R)-6-((1R,2R)-3-(2-(4-(4-acetamidopiperidin-1-yl)phenyl)acetamido)-1,2-dihydroxypropyl)-2-((4-(but-3-yn-1-yloxy)benzyl)oxy)-4-hydroxy-5-(2-hydroxyacetamido)tetrahydro-2H-pyran-2-carboxylic acid] |
| < 1 | < 1 | < 1 | C#CCOCCCCCCO[C@]1(C(=O)O)C[C@H](O)[C@@H](NC(=O)CNC)[C@H]([C@H](O)[C@H](O)CNC(=O)Cc2ccc(Cl)cc2)O1 [Compound 211] |
| > 10 | > 10 | > 10 | C#CCOCCOCCO[C@]1(C(=O)O)C[C@H](O)[C@@H](NC(=O)CO)[C@H]([C@H](O)[C@H](O)CNC(=O)Cc2ccc(-c3cc[nH]c(=O)c3)cc2)O1 [Compound 75, (2R,4S,5R,6R)-6-((1R,2R)-1,2-dihydroxy-3-(2-(4-(2-oxo-1,2-dihydropyridin-4-yl)phenyl)acetamido)propyl)-4-hydroxy-5-(2-hydroxyacetamido)-2-(2-(2-(prop-2-yn-1-yloxy)ethoxy)ethoxy)tetrahydro-2H-pyran-2-carboxylic acid] |
| 1 to 10 | < 1 | < 1 | C#CCOCCCCCCO[C@]1(C(=O)O)C[C@H](O)[C@@H](NC(=O)CO)[C@H]([C@H](O)[C@H](O)CNC(=O)Cc2ccc(OC(F)(F)F)cc2)O1 [Compound 156, (2R,4S,5R,6R)-6-((1R,2R)-1,2-dihydroxy-3-(2-(4-(trifluoromethoxy)phenyl)acetamido)propyl)-4-hydroxy-5-(2-hydroxyacetamido)-2-((6-(prop-2-yn-1-yloxy)hexyl)oxy)tetrahydro-2H-pyran-2-carboxylic acid] |
| > 10 | > 10 | > 10 | C#CCOCCOCCO[C@]1(C(=O)O)C[C@H](O)[C@@H](NC(=O)CO)[C@H]([C@H](O)[C@H](O)CNC(=O)c2ccccc2O)O1 [Compound 28, (2R,4S,5R,6R)-6-((1R,2R)-1,2-dihydroxy-3-(2-hydroxybenzamido)propyl)-4-hydroxy-5-(2-hydroxyacetamido)-2-(2-(2-(prop-2-yn-1-yloxy)ethoxy)ethoxy)tetrahydro-2H-pyran-2-carboxylic acid] |
| 1 to 10 | < 1 | < 1 | C#CCOCCCCCCO[C@]1(C(=O)O)C[C@H](O)[C@@H](NC(=O)CO)[C@H]([C@H](O)[C@H](O)CNC(=O)Cc2ccc(Cl)c(C(F)(F)F)c2)O1 [Compound 127, (2R,4S,5R,6R)-6-((1R,2R)-3-(2-(4-chloro-3-(trifluoromethyl)phenyl)acetamido)-1,2-dihydroxypropyl)-4-hydroxy-5-(2-hydroxyacetamido)-2-((6-(prop-2-yn-1-yloxy)hexyl)oxy)tetrahydro-2H-pyran-2-carboxylic acid] |
| 1 to 10 | 1 to 10 | < 1 | C#CCOCCCCCCO[C@]1(C(=O)O)C[C@H](O)[C@@H](NC(=S)NC)[C@H]([C@H](O)[C@H](O)CNC(=O)Cc2ccc(Cl)cc2)O1 [Compound 84, (2R,4S,5R,6R)-6-((1R,2R)-3-(2-(4-chlorophenyl)acetamido)-1,2-dihydroxypropyl)-4-hydroxy-5-(3-methylthioureido)-2-((6-(prop-2-yn-1-yloxy)hexyl)oxy)tetrahydro-2H-pyran-2-carboxylic acid] |
